Measurements taken from patent US4299836A, “Novel ergol-8-ene and ergolin compounds and process for preparing same” (Richter Gedeon Vegyeszeti Gyar Rt., priority 1979, dated 1981).
pIC50: −log10 of the molar value. Where a name gives a salt, the structure may show the parent alone. Read-outs that look alike come from different tables or passages of the source.

Tests used:
[1] = hypotensive activity in anesthetized cats; type: in vivo
Procedure: The measurements were performed in cats anesthetized with 30 mg/kg of Pentothal (5-ethyl-5-(1-methylbutyl)-2-thiobarbituric acid sodium salt). The left femoral artery was cannulated; the arterial blood pressure was measured by means of Statham P 23 pressure transducer and registrated by a Hellige polygraph. The test compounds were injected into the right femoral vein. (Method: Mc Leod L. J., in: Pharmacological Experiments on Intact Preparations, E. S. Livingstone, Edinburgh and London, 1970, pp. 65-66.)

[2] = molecular target: T1, serotonine receptor (Rattus norvegicus, UniProt P14842); design: The in vitro antiserotonine activity was determined in rat uterine horn preparation; from tissue; host or cells: rat uterine horn
[3] = molecular target: T1, serotonine receptor; experiment: in vivo; type: in vivo; design: For the in vivo studies the rat paw-oedema test was applied; from tissue; host or cells: live rat, paw; conditions: for ED50: read-out: In vivo test ED50, 50% inhibition of serotonine induced oedema
[4] = test system: dopamine receptor; experiment: antagonism of narcosis-potentiating effect of Haloperidol in rats; type: in vivo
Procedure: The in vivo measurements were performed on rats. The antagonism of narcosis-(Hexobarbital Na, 50 mg/kg i.v.)-potentiating effect of Haloperidol (5 mg/kg i.p.) was determined according to Borsy et al. (Acta Physiol. 27, 65-80 /1965/).

[5] = acute toxicity (LD50) in mice; conditions: mouse, in vivo, evaluated 24 hours after administration
[6] = oral blood pressure lowering in awake spontaneously hypertensive rats; type: in vivo; conditions: 1.0 to 2.5 mg/kg orally
From the text: A group of the new compounds according to the invention exerts hypotensive effect on anesthetized animals in low dosages. […] The hypotensive effect of the compounds is accompanied by bradycardia; they inhibit the vasomotor reflexes acting both at central and peripheral target structures. The mechanism of hypotensive effect is different in certain aspects from that of the hydrogenated ergot alkaloids; namely, the new derivatives have no or only negligible adrenolytic activity. Thus, the hypotensive effect is mainly due to an action exerted on the vasomotor center. These derivatives lower the blood pressure also in hypertensive animals upon oral administration. […] The compounds according to the invention exert powerful hypotensive action also in cats.

[7] = molecular target: dopamine receptor; experiment: dopamine receptor stimulant activity in vitro, electrically stimulated mouse vas deferens preparation; conditions: for pIC50: electrically stimulated mouse vas deferens, read-out: In vitro test Mouse vas deferens ID50
Procedure: The dopamine receptor stimulant activities in vitro were determined on electrically stimulated mouse vas deferens preparation (J. Hughes et al., Brit. J. Pharmacol. 53, 371-381 /1975/).

[8] = test system: reserpine-induced hypotermy; experiment: antagonism of reserpine-induced hypotermy in mice (antidepressant activity); type: in vivo; conditions: for antidepressant efficacy/potency compared with Imipramine: mouse, in vivo
Procedure: The antidepressant activity was assessed by measuring the antagonism of reserpine-induced hypotermy in mice. The change in body temperature (Δt) was detected as compared to the control animals (B. M. Askew, Life Sci. 10, 725 /1963/). The acute toxicity data /LD50 / were determined on mice; the evaluation was performed 24 hours after the administration of the compounds (J. T. Litchfield and F. Wilcoxon, J. Pharmacol. exp. Ther. 96, 99 /1949/).

T1 sequence (P14842 whole entry): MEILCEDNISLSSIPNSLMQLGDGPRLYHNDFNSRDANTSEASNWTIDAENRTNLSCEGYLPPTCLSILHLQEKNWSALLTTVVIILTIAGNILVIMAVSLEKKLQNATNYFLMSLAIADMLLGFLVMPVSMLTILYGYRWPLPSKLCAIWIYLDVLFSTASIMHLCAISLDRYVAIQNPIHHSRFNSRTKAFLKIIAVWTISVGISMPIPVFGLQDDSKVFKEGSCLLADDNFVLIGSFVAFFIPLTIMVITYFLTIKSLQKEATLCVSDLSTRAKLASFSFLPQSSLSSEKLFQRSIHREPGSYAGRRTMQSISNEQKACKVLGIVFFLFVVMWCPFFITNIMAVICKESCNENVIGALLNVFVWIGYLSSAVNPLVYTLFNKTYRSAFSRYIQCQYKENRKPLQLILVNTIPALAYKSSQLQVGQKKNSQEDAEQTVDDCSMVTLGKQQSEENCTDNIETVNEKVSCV

Compound	Duration of action ([1]; 0.1 mg/kg i.v.) [h]	Duration of action ([1]; 0.5 mg/kg i.v.) [h]	pIC50 [2]	ED50 ([3]; po) [mg/kg]	ED50 ([3]; sc) [mg/kg]	also measured
CN1CC(CN(CCN=[N+]=[N-])S(C)(=O)=O)=CC2c3cccc4[nH]c(Br)c(c34)CC21 (centres unmarked) [Example 3, 2-Bromo-6-methyl-8-[(N-methanesulfonyl, N-azidoethyl/aminomethyl]-ergol-8-ene hydrogen maleate]	1.5	1.5				
CN1CC(CN(CCOS(C)(=O)=O)S(C)(=O)=O)CC2c3cccc4c3c(cn4C)CC21 (centres unmarked) [Example 9, 1,6-dimethyl-8-[(N-methanesulfonyl, N-methanesulfonyloxy-ethyl)-aminomethyl]-ergoline hydrogen maleate]		1	6.97	1	0.082	
CN1CC(CN(CCN=[N+]=[N-])S(C)(=O)=O)=CC2c3cccc4[nH]cc(c34)CC21 (centres unmarked) [Example 2, 6-Methyl-8-[(N-methanesulfonyl, N-azidoethyl)-aminomethyl]-ergol-8-ene hydrogen maleate]	2	2				Antagonism of Haloperidol effect in rats, Inhibition ([4]; 3.0 mg/kg s.c.): 68.7%; Antagonism of Haloperidol effect in rats, Inhibition ([4]; 10.0 mg/kg p.o.): 38.9%; Antagonism of Haloperidol effect in rats, Inhibition ([4]; 10.0 mg/kg s.c.): 92.2%; Antagonism of Haloperidol effect in rats, Inhibition ([4]; 30.0 mg/kg p.o.): 48.2%; dopamine stimulant potency compared with Bromocryptine in vivo ([4]; in vivo): higher than that of the reference substance; pharmacodynamic effects upon oral administration (in words) ([4]; oral): could also be detected upon oral administration; LD50 at 24 h ([5]; ip): 100 mg/kg; LD50 at 24 h ([5]; po): 100 mg/kg; blood pressure lowering (in words) [6]: lowered the blood pressure for several hours; pIC50 [7]: 7.30; dopamine stimulant efficacy compared with Bromocryptine in vitro ([7]; in vitro): close to that of Bromocryptine; Antidepressant activity, Δt (change in body temperature vs control) ([8]; 10 mg/kg p.o., reserpine-induced hypotermy, mice): +6.5 °C; antidepressant efficacy/potency compared with Imipramine [8]: higher than that of Imipramine
CN1CC(CN(CCN=[N+]=[N-])S(C)(=O)=O)CC2c3cccc4c3c(cn4C)CC21 (centres unmarked) [Example 10, 1,6-dimethyl-8-[(N-methanesulfonyl, N-azidoethyl)-aminomethyl]-ergoline hydrogen maleate]		1.5	8.62	0.47	0.042	potency compared with Methysergide upon oral administration ([3]; in vivo, po): more potent than Methysergide
CN1C[C@H](C(=O)N[C@]2(C)O[C@@]3(O)[C@@H]4CCCN4C(=O)[C@H](Cc4ccccc4)N3C2=O)C[C@@H]2c3cccc4[nH]cc(c34)C[C@H]21 [Dihydroergotamine, reference compound]						Duration of action ([1]; 0.2 mg/kg i.v.): 0.5 h
CN1CC(CN(CCN=[N+]=[N-])S(C)(=O)=O)CC2c3cccc4[nH]cc(c34)CC21 (centres unmarked) [Example 7, 6-Methyl-8-[(N-methanesulfonyl, N-azidoethyl)-aminomethyl]-ergoline hydrogen maleate]		1	8.60	1.7	0.29	
CC(C)C[C@H]1C(=O)N2CCC[C@H]2[C@]2(O)O[C@](NC(=O)[C@@H]3C=C4c5cccc6[nH]c(Br)c(c56)C[C@H]4N(C)C3)(C(C)C)C(=O)N12 [Bromocryptine, 2-bromo-α-ergocryptine, reference compound]						Antagonism of Haloperidol effect in rats, Inhibition ([4]; 10.0 mg/kg p.o.): 25.9%; Antagonism of Haloperidol effect in rats, Inhibition ([4]; 10.0 mg/kg s.c.): 26.2%; Antagonism of Haloperidol effect in rats, Inhibition ([4]; 30.0 mg/kg p.o.): 54.8%; Antagonism of Haloperidol effect in rats, Inhibition ([4]; 30.0 mg/kg s.c.): 34.2%; pIC50 [7]: 7.70
CN1CC(CN(CCOS(C)(=O)=O)S(C)(=O)=O)=CC2c3cccc4[nH]cc(c34)CC21 (centres unmarked) [Example 1, 6-Methyl-8-[(N-methanesulfonyl, N-methanesulfonyloxyethyl)-aminomethyl]-ergol-8-ene hydrogen maleate]		1.5 to 2				LD50 at 24 h ([5]; ip): 100 mg/kg; LD50 at 24 h ([5]; po): 100 mg/kg; antidepressant efficacy/potency compared with Imipramine [8]: equal to
CN1CC(CN(CCN=[N+]=[N-])S(C)(=O)=O)=CC2c3cccc4c3c(cn4C)CC21 (centres unmarked) [Example 4, 1,6-Dimethyl-8-[(N-methanesulfonyl, N-azidoethyl/aminomethyl]-ergol-8-ene tartarate]	1.5	2	8.92	3.7	0.22	
CN1CC(CN(CCN=[N+]=[N-])S(C)(=O)=O)CC2c3cccc4c3c(c(Br)n4C)CC21 (centres unmarked) [Example 11, 2-bromo-1,6-dimethyl-8-[(N-methanesulfonyl, N-azidoethyl)-aminomethyl]-ergoline tartarate]		2	7.00	2	0.3	Duration of action ([1]; 0.25 mg/kg i.v.): 2 h
